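Results reflect a 48-hour exposure of cells in 96-well plates to compound at five concentrations. The concentration for full growth arrest is given as TGI.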
Assays:
Experiment in all cases: NCI tumour cell line growth inhibition, 48 h
[1] = test system: HCC-2998 colon
[2] = test system: EKVX NSCLC
[3] = test system: KM12 colon
[4] = test system: DMS 114 small cell lung
[5] = test system: 786-0 renal
[6] = test system: UACC-62 melanoma
[7] = test system: HCT-15 colon
[8] = test system: RPMI-8226 leukemia
[9] = test system: SK-MEL-5 melanoma
[10] = test system: DMS 273 small cell lung
[11] = test system: K-562 leukemia
[12] = test system: SR leukemia
[13] = test system: OVCAR-8 ovarian
[14] = test system: RXF 393 renal
[15] = test system: HOP-62 NSCLC
[16] = test system: UACC-257 melanoma
[17] = test system: OVCAR-3 ovarian
[18] = test system: M19-MEL melanoma
[19] = test system: A549 NSCLC
[20] = test system: A498 renal
[21] = test system: CAKI-1 renal
[22] = test system: SK-OV-3 ovarian
[23] = test system: MALME-3M melanoma
[24] = test system: XF 498 CNS
[25] = test system: COLO 205 colon
[26] = test system: SNB-75 CNS
[27] = test system: NCI-H23 lung
[28] = test system: HOP-92 NSCLC
[29] = test system: SW-620 colon
[30] = test system: OVCAR-5 ovarian
[31] = test system: SK-MEL-2 melanoma
[32] = test system: NCI-H226 lung
[33] = test system: SNB-78 CNS
[34] = test system: CCRF-CEM leukemia
[35] = test system: KM20L2 colon
[36] = test system: RXF-631 renal
[37] = test system: NCI-H460 lung
[38] = test system: NCI-H522 lung
[39] = test system: SF-268 CNS
[40] = test system: TK-10 renal
[41] = test system: HOP-18 NSCLC
[42] = test system: UO-31 renal
[43] = test system: SNB-19 CNS
[44] = test system: SN12C renal
[45] = test system: U251 CNS
[46] = test system: IGROV1 ovarian
[47] = test system: MOLT-4 leukemia
[48] = test system: OVCAR-4 ovarian
[49] = test system: M14 melanoma
[50] = test system: LXFL 529 NSCLC
[51] = test system: LOX IMVI melanoma
[52] = test system: SF-295 CNS
[53] = test system: HL-60(TB) leukemia
[54] = test system: HCT-116 colon
[55] = test system: DLD-1 colon
[56] = test system: ACHN renal
[57] = test system: SF-539 CNS
[58] = test system: HT29 colon
[59] = test system: SK-MEL-28 melanoma

Measured: TGI

CCOCc1cc(=O)c2cc3c(cc2o1)OC(C)(C)CC3
not listed: [59]
> 100 µM: all other assays above

CCOC(=O)Cn1c(=O)[nH]c(=O)c2c1ncn2Cc1ccccc1
> 100 µM: all assays above

— PubChem BioAssay (NCI)
